Assays:
[1] = DPPH radical scavenging assay; assay type: biochemical; settings: for Mean IC50 for scavenging initial DPPH radicals: mean ± SD of three replicates; for IC50: mean ± SD, converted from mg/mL, read-out: Mean IC50 for scavenging initial DPPH radicals (converted)
Outline: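 Ethanolic DPPH mixed 1:1 with test compound, BHT as reference antioxidant, incubated 1 h at room temperature in darkness. Residual DPPH absorbance read at 519 nm against a no-compound control; scavenging % = (1 − Acompound/AControl) × 100, from three independent triplicate measurements.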

Bax gene = test: qRT-PCR expressional level of Bax gene; assay type: cell-based, human; settings: 10 µg/mL, HCT-116 and LoVo cells, vs negative control
Experimental: Considering these facts, enhancing apoptosis has been extensively studied as a potential drug target in cancer therapy, therefore, in this study, we investigated the effects of the most cytotoxic compounds, 3a and 3f, (at 10 µg/mL, 24 h incubation) on the expressional levels of these apoptotic regulator genes (Bax and Bcl-2) using quantitative reverse transcription–polymerase chain reactions (qRT-PCR).
Briefly, in a 25 mL flask (1 × 10^6 cells/flask), the human colon cancer cell lines (HCT-116 and LoVo) were grown for 24 h. After replacing the culture media with a medium containing 1% FBS for 24 h, the cells were treated with 10 µg/mL of each tested compound in 2 mL of fresh medium containing 1% FBS, or 0.25% DMSO, which was used as the negative control. The cells were adherent cells and they were detached using trypsin after being washed with ice-cold phosphate-buffered saline (PBS).
Primers specific for the Bax, Bcl-2 and Caspase-3 genes were designed using the primer blast (https://www.ncbi.nlm.nih.gov/tools/primer-blast/ accessed on 9 January 2023) software. The primers were used in the RT-qPCR analysis to amplify fragments of 100–200 bp in length (Table 11).
The RNeasy Mini Kit (Qiagen, Hilden, Germany) was used to extract the total RNA. The RNA purity, quality and quantity were checked using a Nanodrop 8000 spectrophotometer (Thermo Fisher Scientific, USA). […]

SMILES | Mean IC50 for scavenging initial DPPH radicals [1] [µg/mL] | IC50 [1] [µM] | Expression level of Bax gene (Bax gene)
O=c1c2cc(Cl)ccc2[nH]c(=S)n1-c1cccc(C(F)(F)F)c1 [Compound 3a, 6-Chloro-2-thioxo-3-(3-trifluoromethyl-phenyl)-2,3-dihydro-1H-quinazolin-4-one] | 68 ± 4 | 191 | upregulate
O=c1c2cc(Cl)ccc2[nH]c(=S)n1-c1ccc([N+](=O)[O-])cc1 [Compound 3f, 6-Chloro-3-(4-nitro-phenyl)-2-thioxo-2,3-dihydro-1H-quinazolin-4-one] | 227 ± 10 | 680 | upregulate

From publication PMC10610505, “Synthesis and Biological Evaluation of Some New 3-Aryl-2-thioxo-2,3-dihydroquinazolin-4(1H)-ones and 3-Aryl-2-(benzylthio)quinazolin-4(3H)-ones as Antioxidants; COX-2, LDHA, α-Glucosidase and α-Amylase Inhibitors; and Anti-Colon Carcinoma and Apoptosis-Inducing Agents” (Pharmaceuticals, 2023)
